According to patent US11052092B2, “N-{[2-(piperidin-1-yl)phenyl](phenyl)methyl}-2-(3-oxo-3,4-dihydro-2H-1,4-benzoxazin-7-yl)acetamide derivatives and related compounds as ROR-gamma modulators for treating autoimmune diseases” (Genfit, priority 2017, dated 2021):
Structures can show the parent of a compound that is named as a salt.

Experiments:
human RORγt = molecular target: T1, human RORγt (Homo sapiens, UniProt P51449); assay: RORE Luciferase/RORγt transactivation assay; type: cell-based; settings: COS-7 cells transfected with human IL-17 promoter luciferase reporter and RORγt plasmid; 20 h with compound; read-out: IC50, RORγt activity inhibition
T1 construct: the full-length cDNA of human RORγt; expressed in transfected cells; host or cells: COS-7 (monkey kidney)
T1 sequence (P51449 1-497 isoform P51449-2): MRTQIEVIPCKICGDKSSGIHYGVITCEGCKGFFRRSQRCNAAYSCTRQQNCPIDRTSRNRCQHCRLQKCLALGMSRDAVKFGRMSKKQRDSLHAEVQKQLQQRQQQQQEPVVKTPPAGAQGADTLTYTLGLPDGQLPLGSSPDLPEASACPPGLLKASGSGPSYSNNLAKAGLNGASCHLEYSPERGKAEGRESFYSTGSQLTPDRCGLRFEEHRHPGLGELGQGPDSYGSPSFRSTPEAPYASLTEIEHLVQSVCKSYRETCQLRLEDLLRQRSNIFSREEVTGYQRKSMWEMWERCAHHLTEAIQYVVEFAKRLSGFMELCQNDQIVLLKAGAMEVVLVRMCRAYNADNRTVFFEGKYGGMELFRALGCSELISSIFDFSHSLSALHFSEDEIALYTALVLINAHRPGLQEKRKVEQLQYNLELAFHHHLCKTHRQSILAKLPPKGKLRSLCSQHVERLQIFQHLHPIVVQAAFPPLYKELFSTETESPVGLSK
Method in brief: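 Transactivation read-out: luminescence (Steady-Glo, 30 min at room temperature) from COS-7 cells carrying a RORγt expression plasmid plus a 4.3 kb IL-17 promoter luciferase reporter. Compound exposure was in serum-free DMEM with 0.3% DMSO final. Reported values are IC50 (μM) and Emax (%).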

[1] = test system: Murine EL-4 lymphoma cell line overexpressing human RORγt; assay: IL-17 secretion from EL4 murine lymphoma; type: cell-based; settings: Mus musculus; human RORγt-transfected EL4 cells, PMA (10 ng/mL) and ionomycin (1 μM), 24 h; read-out: IC50, IL-17 secretion inhibition
Description: Murine EL-4 lymphoma cell line overexpressing human RORγt was used in this functional assay to assess compound ability to inhibit IL-17 cytokine secretion.
EL-4 cells are maintained in a standard culture medium RPMI supplemented with 10% fetal calf serum, 1% sodium pyruvate, 1% essential amino acids and 1% antibiotics at 37° C. in a humidified atmosphere of 5% CO02 and 95% air. Culture medium was changed every 2 days. EL4 cells were transfected with a plasmid encoding hRORγt (sequence identical to published sequence NM 001001523). […] Briefly, 1 μg of DNA/1 million cells was served to transfect EL-4 cells. Cell/DNA suspension was transferred into certified cuvette and the electroporation of RORγt plasmid was carried out using appropriate Nucleofector® program.
Cells were seeded in 96 well plates at a density of 150000 cells/I well then treated with compounds of this invention at indicated concentrations and incubated for 24 hours at 37° C. in a humidified atmosphere of 5% C02 and 95% air. EL-4 cells were pretreated with test compounds (RORγ modulators) and stimulated with PMA (10 ng/mL) and ionomycin (1 μM final concentration) in the presence of test compound concentrations for additional 24 h at 37° C. in a humidified atmosphere of 5% C02 and 95% air. Subsequently, supernatants were collected (after centrifugation at 300 g for 10 minutes) to determine the concentrations of IL-17 by HTRF (CisBio, France) or ELISA (R&D Systems Europe) according to the manufacturer's protocols.

| Structure (SMILES) | melting point [°C] | IC50 (human RORγt) [nM] | IC50 [1] [nM] |
| --- | --- | --- | --- |
| Cc1ccc(C(NC(=O)Cc2ccc3c(ccn3CC3CCOCC3)c2)c2ccc(C)o2)c(N2CCCCC2)c1 (centres unmarked) (as salt: sodium) [Cpd. 113, N-{[4-methyl-2-(piperidin-1-yl)phenyl](5-methylfuran-2-yl)methyl}-2-[1-(oxan-4-ylmethyl)-1H-indol-5-yl]acetamide] | 67 |  |  |
| Cc1ccc(C(NC(=O)C2(c3ccc4c(ccn4CCC(=O)O)c3)CC2)c2ccc(C)o2)c(N2CCCCC2)c1 (centres unmarked) (as salt: sodium) [Cpd. 154, 3-{5-[1-({[4-methyl-2-(piperidin-1-yl)phenyl](5-methylfuran-2-yl)methyl}carbamoyl)cyclopropyl]-1H-indol-1-yl}propanoic acid] | 90 |  |  |
| Cc1ccc(C(NC(=O)C2(c3ccc4c(c3)CCC4O)CC2)c2ccc(C)o2)c(C)c1 (centres unmarked) (as salt: sodium) [Cpd. 155, N-[(2,4-dimethylphenyl)(5-methylfuran-2-yl)methyl]-1-(1-hydroxy-2,3-dihydro-1H-inden-5-yl)cyclopropane-1-carboxamide] | 58 |  |  |
| Cc1ccc(C(NC(=O)Cc2ccc3c(c2)/C(=N/N)C(=O)N3)c2ccc(C)o2)c(N2CCCCC2)c1 (centres unmarked) (hydrate or solvate) [Cpd. 84, 2-[(3Z)-3-hydrazinylidene-2-oxo-2,3-dihydro-1H-indol-5-yl]-N-{[4-methyl-2-(piperidin-1-yl)phenyl](5-methylfuran-2-yl)methyl}acetamide] | 130 |  |  |
| COc1ccc(C(NC(=O)Cc2ccc3[nH]c(=O)cc(C)c3c2)c2ccccc2)c(N2CCCCC2)c1 (centres unmarked) [Cpd. 10, N-{[4-methoxy-2-(piperidin-1-yl)phenyl](phenyl)methyl}-2-(4-methyl-2-oxo-1,2-dihydroquinolin-6-yl)acetamide] |  | 1000 to 10000 | 1000 to 10000 |
| Cc1ccc(C(NC(=O)Cc2ccc3c(c2)CS(=O)(=O)N3)c2ccc(C)o2)c(Br)c1 (centres unmarked) [Cpd. 28, N-[(2-bromo-4-methylphenyl)(5-methylfuran-2-yl)methyl]-2-(2,2-dioxo-1,3-dihydro-2,1-benzothiazol-5-yl)acetamide] |  | 100 to 1000 | 1000 to 10000 |
| Cc1ccc(C(NC(=O)Cc2ccc3c(c2)OCC(=O)N3)c2ccc(C)o2)c(C)c1 (centres unmarked) [Cpd. 33, N-[(2,4-dimethylphenyl)(5-methylfuran-2-yl)methyl]-2-(3-oxo-3,4-dihydro-2H-1,4-benzoxazin-7-yl)acetamide] |  | 100 to 1000 | 100 to 1000 |
| Cc1ccc(C(NC(=O)Cc2ccc3c(c2)CCC(=O)N3)c2ccc(C)o2)c(Br)c1 (centres unmarked) [Cpd. 36, N-[(2-bromo-4-methylphenyl)(5-methylfuran-2-yl)methyl]-2-(2-oxo-1,2,3,4-tetrahydroquinolin-6-yl)acetamide] |  | 100 to 1000 | 100 to 1000 |
| Cc1ccc(C(NC(=O)Cc2ccc3c(c2)C(C)(O)C(=O)N3C)c2ccc(C)o2)c(N2CCCCC2)c1 (centres unmarked) [Cpd. 39, 2-(3-hydroxy-1,3-dimethyl-2-oxo-2,3-dihydro-1H-indol-5-yl)-N-{[4-methyl-2-(piperidin-1-yl)phenyl](5-methylfuran-2-yl)methyl}acetamide] |  | 100 to 1000 | 100 to 1000 |
| Cc1ccc(C(NC(=O)Cc2ccc3c(c2)C(=NO)C(=O)N3)c2ccc(C)o2)c(N2CCCCC2)c1 (centres unmarked) [Cpd. 42, 2-[3-(hydroxyimino)-2-oxo-2,3-dihydro-1H-indol-5-yl]-N-{[4-methyl-2-(piperidin-1-yl)phenyl](5-methylfuran-2-yl)methyl}acetamide] |  | 100 to 1000 | 100 to 1000 |
| Cc1ccc(C(NC(=O)Cc2ccc3[nH]cc(CCO)c3c2)c2ccc(C)o2)c(N2CCCCC2)c1 (centres unmarked) [Cpd. 57, 2-[3-(2-hydroxyethyl)-1H-indol-5-yl]-N-{[4-methyl-2-(piperidin-1-yl)phenyl](5-methylfuran-2-yl)methyl}acetamide] |  | 10 to 100 | < 100 |
| Cc1ccc(C(NC(=O)Cc2ccc3[nH]cc(CO)c3c2)c2ccc(C)o2)c(N2CCCCC2)c1 (centres unmarked) [Cpd. 58, 2-[3-(hydroxymethyl)-1H-indol-5-yl]-N-{[4-methyl-2-(piperidin-1-yl)phenyl](5-methylfuran-2-yl)methyl}acetamide] |  | 10 to 100 | < 100 |
| Cc1ccc(C(NC(=O)C2(c3ccc4[nH]cc(CCO)c4c3)CC2)c2ccc(Cl)o2)c(C)c1 (centres unmarked) [Cpd. 62, N-[(5-chlorofuran-2-yl)(2,4-dimethylphenyl)methyl]-1-[3-(2-hydroxyethyl)-1H-indol-5-yl]cyclopropane-1-carboxamide] |  | 10 to 100 | < 100 |
| Cc1ccc(C(NC(=O)Cc2ccc3c(c2)/C(=N/N)C(=O)N3)c2ccc(C)o2)c(N2CCCCC2)c1 (centres unmarked) [Cpd. 84, 2-[(3Z)-3-hydrazinylidene-2-oxo-2,3-dihydro-1H-indol-5-yl]-N-{[4-methyl-2-(piperidin-1-yl)phenyl](5-methylfuran-2-yl)methyl}acetamide] |  |  | 100 to 1000 |
| Cc1ccc(C(NC(=O)C2(c3ccc4c(c3)CCN4)CC2)c2ccc(C)o2)c(C)c1 (centres unmarked) [Cpd. 142, 1-(2,3-dihydro-1H-indol-5-yl)-N-[(2,4-dimethylphenyl)(5-methylfuran-2-yl)methyl]cyclopropane-1-carboxamide] | 57 | 10 to 100 |  |

Continued, values first:

| melting point [°C] | IC50 (human RORγt) [nM] | IC50 [1] [nM] | Structure (SMILES) |
| --- | --- | --- | --- |
|  | 10 to 100 | 100 to 1000 | Cc1ccc(C(NC(=O)Cc2ccc3c(c2)OCC(=O)N3)c2ccc(C)o2)c(Br)c1 (centres unmarked) [Cpd. 31, N-[(2-bromo-4-methylphenyl)(5-methylfuran-2-yl)methyl]-2-(3-oxo-3,4-dihydro-2H-1,4-benzoxazin-7-yl)acetamide] |
|  | 10 to 100 | < 100 | Cc1ccc(C(NC(=O)Cc2ccc3c(c2)OCC(=O)N3)c2ccc(C)o2)c(N2CCCCC2)c1 (centres unmarked) [Cpd. 35, N-{[4-methyl-2-(piperidin-1-yl)phenyl](5-methylfuran-2-yl)methyl}-2-(3-oxo-3,4-dihydro-2H-1,4-benzoxazin-7-yl)acetamide] |
|  | 10 to 100 | 100 to 1000 | Cc1ccc(C(NC(=O)Cc2ccc3c(c2)C(=NN)C(=O)N3)c2ccc(C)o2)c(N2CCCCC2)c1 (centres unmarked) [Cpd. 37, 2-(3-hydrazinylidene-2-oxo-2,3-dihydro-1H-indol-5-yl)-N-{[4-methyl-2-(piperidin-1-yl)phenyl](5-methylfuran-2-yl)methyl}acetamide] |
|  | 10 to 100 | 100 to 1000 | Cc1ccc(C(NC(=O)Cc2ccc3c(c2)CC(=O)N3C)c2ccc(C)o2)c(N2CCCCC2)c1 (centres unmarked) [Cpd. 38, N-{[4-methyl-2-(piperidin-1-yl)phenyl](5-methylfuran-2-yl)methyl}-2-(1-methyl-2-oxo-2,3-dihydro-1H-indol-5-yl)acetamide] |
|  | 10 to 100 | < 100 | Cc1ccc(C(NC(=O)Cc2ccc3c(c2)CN(S(C)(=O)=O)C3)c2ccc(C)o2)c(N2CCCCC2)c1 (centres unmarked) [Cpd. 41, 2-(2-methanesulfonyl-2,3-dihydro-1H-isoindol-5-yl)-N-{[4-methyl-2-(piperidin-1-yl)phenyl](5-methylfuran-2-yl)methyl}acetamide] |
| 102 | 10 to 100 |  | Cc1ccc(C(NC(=O)Cc2ccc3c(c2)C(C)C(=O)N3)c2ccc(C)o2)c(N2CCCCC2)c1 (centres unmarked) [Cpd. 49, N-{[4-methyl-2-(piperidin-1-yl)phenyl](5-methylfuran-2-yl)methyl}-2-(3-methyl-2-oxo-2,3-dihydro-1H-indol-5-yl)acetamide] |
|  | 10 to 100 | < 100 | Cc1ccc(C(NC(=O)Cc2cc(C)c3c(c2)CC(=O)N3)c2ccc(C)o2)c(N2CCCCC2)c1 (centres unmarked) [Cpd. 54, N-{[4-methyl-2-(piperidin-1-yl)phenyl](5-methylfuran-2-yl)methyl}-2-(7-methyl-2-oxo-2,3-dihydro-1H-indol-5-yl)acetamide] |
|  | < 10 | < 100 | Cc1ccc(C(NC(=O)C2(c3ccc4c(c3)CC(=O)N4)CC2)c2ccc(C)o2)c(C)c1 (centres unmarked) [Cpd. 61, N-[(2,4-dimethylphenyl)(5-methylfuran-2-yl)methyl]-1-(2-oxo-2,3-dihydro-1H-indol-5-yl)cyclopropane-1-carboxamide] |
